The conditions of data set [1]: ubiquinone given to patients receiving 30 mg/kg or higher doses of lovastatin; cited from earlier work.
Data set [2] concerns Murine B16(F10) melanoma cells. In words: IC50 determinations: net increase in 48 hour melanoma cell count. The data set is classed as cell-based. On the procedure: (§1) Cultures, seeded with 1-1.5×10^5 cells, were incubated for 24 hours at 37° C. in a humidified atmosphere of 5% CO2. Isoprenoids, dissolved in absolute ethanol, were added at 24 hours (0 time); all cultures contained 5 mL ethanol/L ([…]). The cultures were incubated for an additional 48 hours. The media was removed and the monolayers were washed twice with Hanks' Balanced Salt Solution (Sigma) and then incubated with a trypsin-EDTA solution (Sigma) at 37° C. for 2 minutes. Trypsin was inactivated by suspending the cells in medium containing 10% fetal bovine serum (Sigma). The cells were pelleted at 250×g and resuspended in Hanks' Balanced Salt Solution. Viable cells, cells that excluded 0.4% trypan blue (GIPCOBRL), were counted with a hemocytometer; 24 hour cell counts were deducted from final cell counts to provide an estimate of the net increase in cell number.
FIG. 1 is a representative evaluation of the dose-dependent impact of five different tocols on the proliferation of melanoma B16 cells. Cultures (3 mL) seeded with 1-1.5×10^5 cells were incubated for 24 hours prior to the introduction of the tocols. Viable cells were counted at 48 hours following the addition of the tocols. The cell count at 24 hours (0 time) is shown by the dashed line. The intersection of the solid horizontal line and the line plotted for each tocol indicates the concentration at which the tocol suppressed by 50% the increase in cell number during the incubation (IC50 value). IC50 values (mean, SD and n) for all isoprenoids tested are listed on Table 1. […] The growth-suppressive potency of the individual tocotrienols was inverse to the number of methyl groups on the 6-chromanol ring: d-α-tocotrienol (methyl groups at carbons 5, 7, 8 and 2)<<d-γ-tocotrienol (methyl groups at carbons 7, 8 and 2)<d-δ-tocotrienol (methyl groups at carbons 8 and 2)<<d-2-desmethyl tocotrienol (no methyl groups) (Table 1).

Data set [3] has as its system B16 melanoma cells. In words: Paired isoprenoids, 48 hour cell count (FIG. 2A, 2B). The data set is classed as cell-based, Murine. On the procedure:
as §1
We next determined that the effects of the isoprenoids on the growth of B16 melanoma cells in culture are additive, and in some cases, synergistic. FIG. 2A illustrates the additive effects of γ-tocotrienol and β-ionone on B16 melanoma cell populations. Values are means±SD, n=28; pooled SEM=36 (×10^4). Cell counts calculated to show the decreased population relative to the control are listed on the insert table.
FIG. 2B illustrates the additive effects of carvacrol and β-ionone on B16 melanoma cell populations. Values are means±SD, n=28; pooled SEM=62 (×10^4). Cell counts calculated to show the decreased population relative to the control are listed in the inset table. ^a-hMeans not sharing a superscript (a>b>c>d>e>f>g>h) are different (P<0.001). Referring to FIG. 2, B16 melanoma cells were incubated with β-ionone and d-γ-tocotrienol in one test (FIG. 2A). d-γ-Tocotrienol (7.5 μmol/L) and β-ionone (50 μmol/L) reduced the 48 hour cell count by 19% and 10% respectively (FIG. 2A). The 34% reduction in cell number achieved with the paired isoprenoids exceeded the 29% reduction predicted by the sum of the individual effects (FIG. 2A, inset). At higher concentrations d-γ-tocotrienol (15 μmol/L) and β-ionone (100 μmol/L) reduced the 48 hour cell count by 34% and […] respectively; the additive effect, a 68% reduction in cell number, was also greater than the sum of the individual effects (59%) (FIG. 2A, inset).
Carvacrol (50 μmol/L) and β-ionone (75 μmol/L) reduced the 48 hour cell count by 25% and 31% respectively; the additive effect, a 48% reduction in cell number, was less than the 56% reduction predicted by the sum of the individual effects. Carvacrol (100 μmol/L) and β-ionone (150 μmol/L) reduced the cell count by 35% and 65% respectively; the additive effect, an 84% reduction in cell number, again was less than the 100% reduction predicted by the sum the individual effects (FIG. 2B, inset). The reduction in cell number predicted by the sum of the individual effects of the isoprenoids was highly correlated with that achieved with the paired isoprenoids (r=0.91, n=8, P<0.01).

The subject of data set [4] is B16(F10) melanoma. Conditions: mouse, in vivo.
Method: The first examined the impact of a diet-relevant intake of d-γ-tocotrienol on the growth of B16(F10) melanomas in host mice. […] We first prepared a basal diet mix, patterned after the AIN-76A formulation (American Institute of Nutrition, 1977) but free of corn oil and dl-α-tocopherol. These ingredients and Vitamin E-stripped corn oil were purchased from Teklad Test Diets, Madison, Wis. Stock solutions of dl-α-tocopherol (80 μmol/g) and d-γ-tocotrienol (80 μmol/g) were prepared with vitamin E-stripped corn oil. Stock solutions of the tocols, diluted with vitamin E-stripped corn oil, were mixed with the basal diet to provide finished diets containing 5% corn oil and specified tocol concentrations. Where noted, β-ionone was added to the oil. The diets, mixed weekly, were stored under refrigeration. Food cups were cleaned and refilled daily.
Experiment 1: Weanling C57BL female mice (Harlan-Sprague Dawley, Madison, Wis.) were housed in groups of four on wood shavings in plastic cages and maintained at 25° C. with a 12 hour light-dark cycle. The four groups of mice (20/group) were fed experimental diets for 10 days prior to and for 28 days following the implantation of B16 melanoma cells. The split plot design consisted of four treatments comprised of two tocols, dl-α-tocopherol and d-γ-tocotrienol, each presented at two levels, 116 and 924 μmol/kg diet. This design permitted two comparisons of diets equal in tocol content and one comparison of diets about equal in d-α-tocopherol equivalents. […] We then corrected for the biological activity of the dl-α-tocopherol mixture (70% of the activity of d-α-tocopherol) in arriving at the 8:1 tocotrienol/tocopherol ratio used in formulating the experimental diets. Melanoma cells, cultured and harvested as previously, described (Shoff, et al., 1991), were washed twice with RPMI 1640 containing 10% Fetal Bovine Sera (GIBCOBRL). The pelleted cells were suspended in RPMI 1640 and counted (98% viable) after a 1:20 dilution in 0.4% trypan blue. The cells were further diluted in RPMI 1640 (1×10^8 cells/L) and 0.1 mL of the suspension (1×10^4 cells) was injected subcutaneously into the flank of each mouse. […] The mice were killed by CO2 overdose and the tumors were excised and weighed.
Statistical Methods: StatView and SuperANOVA software (Abacus Concepts, Berkeley, Calif.) were used for the assessment of treatment-mediated effects. Treatment-mediated differences in body and tumor weights, days to tumor appearance and days to morbidity were identified with split plot analysis of variance and pairwise t-tests of least squares means. Treatment-mediated differences in days to morbidity were also assessed using parametric (paired t-test) and nonparametric (Wilcoxon signed rank) tests (Haycock, et al., 1992).
The first dietary study evaluated the impact of d-γ-tocotrienol and dl-α-tocopherol on days to detection of a solid tumor and growth of implanted B16 melanomas.
The mark [5] stands for this setting: 48 hour incubation; means ± SD; read-out: IC50: concentration required to suppress the increase in the population of melanoma cells by 50% during a 48 hour incubation.
The mark [6] stands for this setting: read-out: IC50: concentration required to suppress the increase in the population of melanoma cells by 50% during a 48 hour incubation; 48 hour incubation; means ± SD.

Like-named read-outs stand apart in the source and are kept apart here.

Regarding `COC1=C(OC)C(=O)C(C/C=C(\C)CC/C=C(\C)CC/C=C(\C)CC/C=C(\C)CC/C=C(\C)CC/C=C(\C)CC/C=C(\C)CC/C=C(\C)CC/C=C(\C)CCC=C(C)C)=C(C)C1=O` [Ubiquinone], in data set [1], the “incidence of musculoskeletal toxicity of lovastatin” value is “did not decrease” and the “severity of musculoskeletal toxicity of lovastatin” value is “significantly decreased”. `Cc1ccc(C(C)C)c(O)c1` [Thymol, 5-methyl-2-isopropylphenol]: the IC50 in data set [2] (setting [5]) was found to be 120 ± 15 µM. As for `C=C(C)[C@@H]1CC=C(CO)CC1` [Perillyl alcohol, [R]4-isopropenyl-1-methanol-cyclohexene], the IC50 in data set [2] (setting [5]) was found to be 250 µM. `CC(C)=CCCC(C)=CCCC(C)=CCCC1(C)CCc2cc(O)cc(C)c2O1` (stereo not drawn) [d-δ-Tocotrienol, 2,8-dimethyl-2-(4,8,12-trimethyltrideca-3,7,11-trienyl)-chroman-6-ol]: the IC50 in data set [2] (setting [5]) was determined as 10 µM. On to `Cc1ccc(C(C)C)cc1O` [Carvacrol, 5-isopropyl-2-methylphenol, reference compound], for which the IC50 in data set [2] (setting [6]) was 120 ± 15 µM. For the same molecule, the entries for the “reduction of 48 hour cell count” value in data set [3] (50 μmol/L) and in data set [3] (100 μmol/L) were 25% and 35%, respectively. With `CC(C)=CCC/C(C)=C/CO` [Geraniol, trans 3,7-dimethyl-2,6-octadien-1-ol], the IC50 in data set [2] (setting [5]) was 150 ± 19 µM. The same measure, in the same setting: as for `CC(C)=CCCC(C)=CCCC(C)=CCCC1CCc2cc(O)ccc2O1` (stereo not drawn) [d-2-desmethyl Tocotrienol, 2-(4,8,12-trimethyltrideca-3,7,11-trienyl)-chroman-6-ol], the figure is 0.9 µM.

`CC(C)=CCCC(C)=CCCC(C)=CCCC1(C)CCc2c(C)c(O)c(C)c(C)c2O1` (stereo not drawn) [d-α-Tocotrienol, 2,5,7,8-tetramethyl-2-(4,8,12-trimethyltrideca-3,7,11-trienyl)-chroman-6-ol]: the IC50 in data set [2] (setting [5]) is 110 µM.

As to `Cc1c(C)c2c(c(C)c1O)CCC(C)(CCCC(C)CCCC(C)CCCC(C)C)O2` (stereo not drawn) [d1-α-Tocopherol, 2,5,7,8-tetramethyl-2-(4,8,12-trimethyltridecyl)-chroman-6-ol], in data set [4], the “body weight at the time of tumor implant” value was “significantly lower”. Further, in data set [2] (setting [6]), the IC50 was greater than 1600 µM. Besides, the “impact on cell number (FIG. 1)” value in data set [2] (viable cells at 48 hours after addition) is given as “no impact on cell number”. As for `C=C(C)[C@H]1CC=C(C)CC1` [d-Limonene, [R]4-isopropenyl-1-methyl-1-cyclohexene], in data set [2] (setting [5]), the IC50 was found to be 450 µM. With `CC(C)=CCC/C(C)=C/CC/C(C)=C/CO` [Farnesol, trans, trans 3,7,11-trimethyl-2,6,10 dodecatrien-1-ol], in data set [2] (setting [5]), the IC50 was 50 µM.

In the case of `C=C(C)C1CC=C(C=O)CC1` (centres unmarked) [Perillaldehyde, [R]-4-isopropenyl-1-carboxaldehyde cyclohexene], the IC50 in data set [2] (setting [6]) is 120 ± 17 µM.

The values above are taken from patent US6441029B1, “Method of suppressing tumor growth with combinations of isoprenoids and statins” (Wisconsin Alumni Research Foundation, priority 1997, dated 2002).
